Experiments:
Format in all cases: in vivo
[1] = tested on: Echinochloa crus-galli (L.) Beauv. var. crusgall (Ec); assay: Test for herbicidal effect by upland field soil treatment (Test Example 2), Ec; conditions: 100 g/10 a active ingredient, examined at 21st day
Outline: (§1)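 Pre-emergence soil treatment: wettable powder diluted in water and sprayed on soil just sown with Ec and Se seeds, delivering 100 g active ingredient per 10 ares in 100 liters per 10 ares. Herbicidal effect was rated against a fixed scale 21 days later, after greenhouse growth.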

[2] = tested on: Echinochloa oryzicola Vasing. (Eo); assay: Test for herbicidal effect by paddy field soil treatment (Test Example 1); conditions: application amount (active ingredient) 100 g/10 a, examined at the 21st day from the treatment, index per Table 40
Outline: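 Scored on a standard scale at day 21 in the greenhouse: herbicidal effect of wettable powder applied to flooded water (3 cm depth) at 100 g a.i./10 ares, one day after sowing Eo into puddled paddy soil.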

[3] = tested on: Echinochloa crus-galli (L.) Beauv. var. crusgalli (Ec); assay: Test for herbicidal effect by upland foliage treatment (Test Example 3); conditions: 100 g/10 a active ingredient, examined at 14th day
Outline: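 Scored 14 days post-spray against a graded standard: greenhouse-grown Ec, 2 weeks old in upland soil, received whole-foliage application of diluted wettable powder (100 g active ingredient per 10 ares, spray volume 100 L per 10 ares).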

[4] = tested on: Setaria viridis (L.) Beauv. (Se); assay: Test for herbicidal effect by upland field soil treatment (Test Example 2), Se; conditions: 100 g/10 a active ingredient, examined at 21st day
Outline: as §1

| Structure (SMILES) | Herbicidal effect to Ec [1] | Herbicidal effect to Eo [2] | Herbicidal effect to Ec [3] | Herbicidal effect to Se [4] |
| --- | --- | --- | --- | --- |
| CC1(C)CC(S(=O)(=O)Cc2cc(F)c(F)cc2F)=NO1 [Compound 1-510] | 5 (A herbicidal effect or phytotoxicity of 90% or more) | 5 (A herbicidal effect or phytotoxicity of 90% or more) | 4 (A herbicidal effect or phytotoxicity of 70% to less than 90%) | 5 (A herbicidal effect or phytotoxicity of 90% or more) |
| Cc1ccc(CS(=O)(=O)C2=NOC(C)(C)C2)c(C)c1 [Compound 1-511] | 5 (A herbicidal effect or phytotoxicity of 90% or more) | 5 (A herbicidal effect or phytotoxicity of 90% or more) | 5 (A herbicidal effect or phytotoxicity of 90% or more) | 5 (A herbicidal effect or phytotoxicity of 90% or more) |
| Cc1ccc(C)c(CS(=O)(=O)C2=NOC(C)(C)C2)c1 [Compound 1-512] | 5 (A herbicidal effect or phytotoxicity of 90% or more) | 5 (A herbicidal effect or phytotoxicity of 90% or more) | 5 (A herbicidal effect or phytotoxicity of 90% or more) | 5 (A herbicidal effect or phytotoxicity of 90% or more) |
| Cc1ccc(CS(=O)(=O)C2=NOC(C)(C)C2)cc1C [Compound 1-513] | 5 (A herbicidal effect or phytotoxicity of 90% or more) | 5 (A herbicidal effect or phytotoxicity of 90% or more) | 5 (A herbicidal effect or phytotoxicity of 90% or more) | 5 (A herbicidal effect or phytotoxicity of 90% or more) |
| CC1(C)CC(S(=O)(=O)Cc2cc(C(F)(F)F)ccc2F)=NO1 [Compound 1-514] | 5 (A herbicidal effect or phytotoxicity of 90% or more) | 5 (A herbicidal effect or phytotoxicity of 90% or more) | 5 (A herbicidal effect or phytotoxicity of 90% or more) | 5 (A herbicidal effect or phytotoxicity of 90% or more) |
| CC1(C)CC(S(=O)(=O)Cc2cccc(C(F)(F)F)c2F)=NO1 [Compound 1-515] | 5 (A herbicidal effect or phytotoxicity of 90% or more) | 5 (A herbicidal effect or phytotoxicity of 90% or more) | 5 (A herbicidal effect or phytotoxicity of 90% or more) | 5 (A herbicidal effect or phytotoxicity of 90% or more) |
| CC1(C)CC(S(=O)(=O)Cc2ccc(Br)cc2F)=NO1 [Compound 1-516] | 5 (A herbicidal effect or phytotoxicity of 90% or more) | 5 (A herbicidal effect or phytotoxicity of 90% or more) | 5 (A herbicidal effect or phytotoxicity of 90% or more) | 5 (A herbicidal effect or phytotoxicity of 90% or more) |
| CC1(C)CC(S(=O)(=O)Cc2ccccc2S(=O)(=O)C(F)(F)F)=NO1 [Compound 1-517] | 5 (A herbicidal effect or phytotoxicity of 90% or more) | 5 (A herbicidal effect or phytotoxicity of 90% or more) | 5 (A herbicidal effect or phytotoxicity of 90% or more) | 5 (A herbicidal effect or phytotoxicity of 90% or more) |
| CC1(C)CC(S(=O)(=O)Cc2ccccc2I)=NO1 [Compound 1-521] | 5 (A herbicidal effect or phytotoxicity of 90% or more) | 5 (A herbicidal effect or phytotoxicity of 90% or more) | 5 (A herbicidal effect or phytotoxicity of 90% or more) | 5 (A herbicidal effect or phytotoxicity of 90% or more) |
| Cc1cccc(CS(=O)(=O)C2=NOC(C)(C)C2)c1C [Compound 1-522] | 5 (A herbicidal effect or phytotoxicity of 90% or more) | 5 (A herbicidal effect or phytotoxicity of 90% or more) | 5 (A herbicidal effect or phytotoxicity of 90% or more) | 5 (A herbicidal effect or phytotoxicity of 90% or more) |
| COc1cc(CS(=O)(=O)C2=NOC(C)(C)C2)cc(OC)c1 [Compound 1-524] | 5 (A herbicidal effect or phytotoxicity of 90% or more) | 5 (A herbicidal effect or phytotoxicity of 90% or more) | 5 (A herbicidal effect or phytotoxicity of 90% or more) | 5 (A herbicidal effect or phytotoxicity of 90% or more) |
| CCc1cccc(C)c1CS(=O)(=O)C1=NOC(C)(C)C1 [Compound 1-525] | 5 (A herbicidal effect or phytotoxicity of 90% or more) | 5 (A herbicidal effect or phytotoxicity of 90% or more) | 5 (A herbicidal effect or phytotoxicity of 90% or more) | 5 (A herbicidal effect or phytotoxicity of 90% or more) |
| CC1(C)CC(S(=O)(=O)Cc2c(F)cccc2C(F)(F)F)=NO1 [Compound 1-527] | 5 (A herbicidal effect or phytotoxicity of 90% or more) | 5 (A herbicidal effect or phytotoxicity of 90% or more) | 5 (A herbicidal effect or phytotoxicity of 90% or more) | 5 (A herbicidal effect or phytotoxicity of 90% or more) |
| CC1(C)CC(S(=O)(=O)Cc2ccc(C(F)(F)F)cc2F)=NO1 [Compound 1-528] | 5 (A herbicidal effect or phytotoxicity of 90% or more) | 5 (A herbicidal effect or phytotoxicity of 90% or more) | 5 (A herbicidal effect or phytotoxicity of 90% or more) | 5 (A herbicidal effect or phytotoxicity of 90% or more) |
| Cc1cc(C)c(CS(=O)(=O)C2=NOC(C)(C)C2)c(C)c1 [Compound 1-529] | 5 (A herbicidal effect or phytotoxicity of 90% or more) | 5 (A herbicidal effect or phytotoxicity of 90% or more) | 5 (A herbicidal effect or phytotoxicity of 90% or more) | 5 (A herbicidal effect or phytotoxicity of 90% or more) |
| COc1ccc([N+](=O)[O-])cc1CS(=O)(=O)C1=NOC(C)(C)C1 [Compound 1-530] | 5 (A herbicidal effect or phytotoxicity of 90% or more) | 5 (A herbicidal effect or phytotoxicity of 90% or more) | 5 (A herbicidal effect or phytotoxicity of 90% or more) | 5 (A herbicidal effect or phytotoxicity of 90% or more) |
| CC1(C)CC(S(=O)(=O)Cc2c(F)c(F)c(F)c(F)c2F)=NO1 [Compound 1-531] | 5 (A herbicidal effect or phytotoxicity of 90% or more) | 5 (A herbicidal effect or phytotoxicity of 90% or more) | 5 (A herbicidal effect or phytotoxicity of 90% or more) | 5 (A herbicidal effect or phytotoxicity of 90% or more) |
| COc1cccc(OC)c1CS(=O)(=O)C1=NOC(C)(C)C1 [Compound 1-535] | 5 (A herbicidal effect or phytotoxicity of 90% or more) | 5 (A herbicidal effect or phytotoxicity of 90% or more) | 4 (A herbicidal effect or phytotoxicity of 70% to less than 90%) | 5 (A herbicidal effect or phytotoxicity of 90% or more) |
| CCOc1cccc(OCC)c1CS(=O)(=O)C1=NOC(C)(C)C1 [Compound 1-536] | 5 (A herbicidal effect or phytotoxicity of 90% or more) | 5 (A herbicidal effect or phytotoxicity of 90% or more) | 4 (A herbicidal effect or phytotoxicity of 70% to less than 90%) | 5 (A herbicidal effect or phytotoxicity of 90% or more) |
| Cc1c(CS(=O)(=O)C2=NOC(C)(C)C2)cccc1[N+](=O)[O-] [Compound 1-537] | 5 (A herbicidal effect or phytotoxicity of 90% or more) | 5 (A herbicidal effect or phytotoxicity of 90% or more) | 4 (A herbicidal effect or phytotoxicity of 70% to less than 90%) | 5 (A herbicidal effect or phytotoxicity of 90% or more) |
